Marks after values point to notes of the source that are not given here.
What was measured:
[1] = tested on: L. donovani intracellular amastigotes in B10R cells; assay: UCSD L. donovani infection assay (Assay Conditions D); type: cell-based; conditions: B10R cells; for L. donovani amastigotes EC75 (B10R cells): footnote d; for EC50: Leishmania donovani, values marked d, read-out: L. donovani amastigotes EC50 (B10R cells)
Summary of the method: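 B10R cells (300/well) infected with stationary-phase L. donovani WT promastigotes at 20 parasites/cell in DMEM high-glucose, 5% FBS, with compounds 72 h at 37° C., 5% CO2. Formaldehyde-fixed, DAPI-stained, imaged by high-content microscopy; 10-point 2-fold dilutions (screen at 10 μM) gave EC50 and host CC50.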

[2] = UCSD infection assay, host cell cytotoxicity (CC50); type: cell-based; conditions: mouse, B10R host cells infected with L. donovani; footnote d
Method: (§1) Assay Conditions D: B10R cells (CVCL_0155) were seeded at 300 cells/well, and L. donovani WT promastigotes in stationary phase (7th day after passage) were added at 6,000 parasites/well (ratio of 20 parasites/cell). Both cells and parasites were seeded in DMEM High-Glucose medium (Gibco, cat. no. 11995065) containing 5% Fetal Bovine Serum (Sigma-Aldrich, cat. no. F2442) and 1% Penicillin-Streptomycin (Gibco, cat. no. 15140122). Cells and parasites were incubated in the presence of the compounds for 72 h at 37° C. and 5% C02. Plates were then fixed with 4% formaldehyde solution for at least 1 h, then washed with 1×PBS and stained with 5 μg/mL DAPI. Plates were read using an ImageXpress microscope (Molecular Devices) and analyzed by MetaXpress software (Molecular Devices) using a custom module optimized for this assay. […] Compounds were tested in a 10-point 2-fold serial dilution in 3 technical replicates, and 2 biological replicates. After 72 h, plates were fixed and stained with DAPI as described above. Images were acquired on an ImageXpress microscope, and analyzed using the MetaXpress custom module.
as §1, with “Compounds were obtained as 0.2 μmoles of dried film for primary single point screening. Each compound was diluted in DMSO to 10 μM final testing concentration. These compounds were tested in 2 biological replicates. The compounds were pre-spotted onto 384-well assay plates in single concentration.” for “Assay Conditions D:”, “CO2.” for “C02.”, “module. The DRCs were plotted, half-effective concentration (EC50) and half-cytotoxic concentration (CC50) were calculated using GraphPad Prism Software, version 6.05 (GraphPad Software, San Diego, CA).” for “module.”

[3] = tested on: L. braziliensis (strain BA788) in J774 cells; assay: J774 luciferase infection assay (Assay Conditions E); type: cell-based, Leishmania braziliensis; conditions: footnote e
Method: (§2) Assay Conditions E: J774 cells (ATCC J774A.1 were grown in DMEM supplemented with 10% Fetal Bovine Serum (FBS) and 1% Penicillin-Streptomycin at 37° C. in 5% CO2. Leishmania parasites expressing luciferase and GFP were grown as described in Front. Cell. Infect. Microbiol (2019) 9:237. J774 cells were seeded in microwell plates at 3×10^5 cells/mL density. Cells were washed with PBS and incubated with complete DMEM medium containing stationary phase Leishmania promastigotes (L. major: strain Friedlin; L. braziliensis, strain BA788) at a 1:10 parasite-cell ratio for 24 h. Cells were washed with PBS. Cells and compounds were incubated for 48 h at 37° C. and 5% C02. Compounds were tested in 8-point 2-fold serial dilution in 4 technical replicates, and 2 biological replicates. After 48 h, OneTiterGlo (Promega) (100 μl) was added to each well. Plates were incubated for 15 min and bioluminescence was measured using a plate reader (Molecular Devices). Effective concentration inducing 75% activity (EC75) was calculated using GraphPad Prism Software (version 9.0).

[4] = tested on: L. major (strain Friedlin) in J774 cells; assay: as above; type: cell-based, Leishmania major; conditions: values marked e
Method: as §2

[5] = GSK inMac assay, host cell toxicity readout (LD MAC); type: cell-based, human; conditions: human; footnote c; read-out: THP-1 Host Cell CC50
Summary of the method: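 Intramacrophage L. donovani assay in THP-1 macrophages; host toxicity taken from host cell number per well, giving MAC EC50. Run alongside amastigote-per-cell and infected-cell readouts in the same wells.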

[6] = tested on: L. donovani intracellular amastigotes infecting THP-1 macrophages; assay: GSK intramacrophage L. donovani assay (LD AMMAC, inMac; Assay Conditions C); type: cell-based; conditions: Leishmania donovani; THP-1 cells; values marked c; read-out: L. donovani amastigotes EC50 (THP-1 cells)
Summary of the method: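 L. donovani amastigotes within THP-1 macrophages; EC50 based on average intracellular amastigotes per infected cell (AMMAC). Infected-cell percentage (INFCELL) and host-cell number (MAC) also read, the latter as toxicity output.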

[7] = tested on: L. braziliensis-infected macrophages; assay: Macrophage (BMDM) infection with L. braziliensis and exposure to CMLDs; type: cell-based, Leishmania braziliensis
Method: Leishmania braziliensis (MIHOM/BR/00/BA788) and L. major (Friedlin) promastigotes were maintained in Schneider's medium (SIGMA) supplemented with 10% heat-inactivated FCS, 100 U/ml penicillin, 100 μg/ml streptomycin (all from Invitrogen).
BMDM were obtained as described above. Cells were resuspended in DMEM medium supplemented with 100 U/mL penicillin, […] streptomycin, and 10% heat-inactivated Fetal Bovine Serum (all from Invitrogen) and seeded at a density of 3×10^5 cells per well in 24-well culture plates. Monolayers received 3×10^6 cells L. braziliensis promastigotes and were incubated at 37° C. in supplemented DMEM medium for 24 h. Infected macrophages were then washed to remove non-internalized parasites. Compounds CMLD 011128, CMLD010947, CMLD010498, and CMLD011494 were added at different concentrations. After 24 hours, cells were extensively washed, fixed and stained with hematoxylin and eosin (H&E). The number of infected cells and of intracellular amastigotes were counted by optical microscopy in 200 macrophages. Positive controls consisted of cultures treated with Amphotericin B (0.25 μg/mL, Invitrogen). Cultures were performed in quintuplicate. Alternatively, infected macrophages were treated as described, monolayers were extensively washed and the medium was replaced by 0.5 ml of supplemented Schneider medium. Cells were cultured for seven additional days at 26° C., when number of viable promastigotes was determined using hemocytometer.
Results were expressed as the mean percentage reduction of infected cells compared with untreated control wells. Half-maximal effective concentrations (EC50) were determined by sigmoidal regression curves using Prism 7.0 software (GraphPad Software Inc.)

| Structure (SMILES) | L. donovani amastigotes EC75 (B10R cells) [1] | EC50 [1] | CC50 at 72 h [2] | L. braziliensis amastigotes EC75 (J774 cells) [3] | L. major amastigotes EC75 (J774 cells) [4] | CC50 [5] | EC50 [6] | leishmanicidal effect on L. braziliensis infection in vitro [7] | percentage of infected macrophages ([7]; L. braziliensis, 24 h exposure) |
| --- | --- | --- | --- | --- | --- | --- | --- | --- | --- |
| COc1ccc(N2C(=O)c3[nH]nc(CC(C)C)c3C2c2ccccc2Cl)cn1 (centres unmarked) [BUCMD00686] | 0.5 µM | 1100 nM | 10 µM | 1.0 µM | >10^e μM | 9.9 µM | – | – | – |
| COc1ccc(N2C(=O)c3[nH]nc(CC(C)C)c3C2c2ccc(F)cc2)cc1F (centres unmarked) [CMLD010884] | 0.8 µM | – | 20 µM | >10 µM | 7.2^e μM | 25.1 µM | 1300 nM | – | – |
| COc1ccc(N2C(=O)c3[nH]nc(CC(C)C)c3C2c2ccccc2Cl)cc1 (centres unmarked) [CMLD010893] | 0.3 µM | – | 6.31 µM | >10 µM | 8.3^e μM | 20 µM | 1300 nM | – | – |
| CC(C)Cc1n[nH]c2c1C(c1ccc(F)cc1)N(c1ccc3c(c1)OCO3)C2=O (centres unmarked) [CMLD010901] | 0.4 µM | – | 12.6 µM | 8.7 µM | 6.0^e μM | 25.1 µM | 600 nM | – | – |
| CC(C)Cc1n[nH]c2c1C(c1ccccc1Cl)N(c1ccc3c(c1)OCO3)C2=O (centres unmarked) [CMLD010902] | – | 200 nM | – | >10 µM | 7.3^e μM | 12.2 µM | – | – | – |
| COc1ccc(N2C(=O)c3[nH]nc(CC(C)C)c3[C@@H]2c2ccc(F)cc2)cc1 [CMLD011128] | 0.5 µM | – | – | 7.5 µM | – | > 20 µM | 800 nM | did not show leishmanicidal effects | did not decrease |
| CC(C)Cc1n[nH]c2c1C(c1ccccc1Br)N(c1ccc3c(c1)OCO3)C2=O (centres unmarked) [CMLD011548] | – | 300 nM | – | 5.2 µM | 1.8^e μM | > 20 µM | – | – | – |
| CC(C)Cc1n[nH]c2c1C(c1ccccc1Br)N(c1ccc(N(C)C)cc1)C2=O (centres unmarked) [CMLD011554] | 0.1 µM | 100 nM | 6.31 µM | 2.9 µM | 5.2^c μM | 5.7 µM | – | – | – |
| Cc1cc(F)ccc1C1c2c(CC(C)C)n[nH]c2C(=O)N1c1ccc(N(C)C)cc1 (centres unmarked) [CMLD011561] | 0.1 µM | 100 nM | 7.94 µM | 2.1 µM | 1.9^e μM | 7.5 µM | – | – | – |
| COc1ccc(N2C(=O)c3[nH]nc(CC(C)C)c3C2c2ccc(F)cc2C)cc1F (centres unmarked) [CMLD011562] | 0.2 µM | 200 nM | 10 µM | 5.2 µM | 2.7^e μM | 10.9 µM | – | – | – |
| Cc1cc(F)ccc1C1c2c(CC(C)C)n[nH]c2C(=O)N1c1ccc2c(c1)OCO2 (centres unmarked) [CMLD011564] | 0.1 µM | 100 nM | 12.6 µM | 4.9 µM | 1.4^e μM | 12.1 µM | – | – | – |
| COc1cc(F)ccc1C1c2c(CC(C)C)n[nH]c2C(=O)N1c1ccc(N(C)C)cc1 (centres unmarked) [CMLD011572] | – | – | 10 µM | 1.9 µM | 1.3^e μM | 8.5 µM | – | – | – |
| COc1ccc(N2C(=O)c3[nH]nc(CC(C)C)c3C2c2ccc(F)cc2OC)cn1 (centres unmarked) [CMLD011574] | 0.3 µM | 300 nM | – | 8.2 µM | 4.8^e μM | > 20 µM | – | – | – |

Source: patent US20230381142A1, “ANTILEISHMANIAL COMPOUNDS, COMPOSITIONS AND USE THEREOF” (TRUSTEES OF BOSTON UNIVERSITY, priority 2022, published 2023)
